Assay results: patent publication US20190350955A1, “METHODS AND PHARMACEUTICAL COMPOSITIONS FOR THE TREATMENT OF CARDIOMYOPATHIES” (INSERM (Institut National de la Sante et de la Recherche …, priority 2016, published 2019)

Experiments:
[1] = test system: SRF^HKO mice; assay: Myocardial NAD+ levels in SRF HKO mice (NAD recycling assay); format: in vivo, mouse
From the text: Transgenic mice. All experiments with animals conformed to the Directive 2010/63/EU of the European Parliament and were approved by the ethics committee Charles Darvin #5 (agreement 00369.01). SRF^HKO mice bear the tamoxifen-inducible α-MHC-MerCrMer transgene and the Siffloxed allele (Sf/Sf) as described previously (Parlakian et al. (2005). Temporally controlled onset of dilated cardiomyopathy through disruption of the SRF gene in adult heart. Journal 112, 2930-2939; Tritsch et al. (2013). An SRF/miR-1 axis regulates NCX1 and Annexin A5 protein levels in the normal and failing heart. Journal 98, 372-380). Transgenic mice have been bred for more than 20 generations in C57BL/6N background. The mice were housed in standard animal facility (CEF. Hôpital Pitié Salpétrière, agreement A-75-13-15, 75013 Paris), under a 12-h dark/light cycle. Tamoxifen (Sigma T5648) was administrated by i.p. injection at a dose of 0.7 mg diluted in 100 μl peanut oil at day (D) 0, D1 and D2. […]
Tissue frozen powder was resuspended in 75% ethanol, 25% HEPES 10 mM pH 7.1, buffer (20 μl/mg of tissue). […] After adjustment of dilution factors, NADH levels were calculated by substracting the NAD^+ concentration to the non-heated ethanolic extract values: NADH=NADt (non heated)−NAD^+ (heated).
For both types of extracts (buffered ethanol or HClO4) we added 100 μL of reaction buffer (600 mM ethanol, 0.5 mM 3-(4.5-dimethylthiazol-2-yl)-2.5-diphenyltetrazolium bromide (MTT), 2 mM phenazine ethosulfate (PES), 120 mM Bicine (pH 7.8), yeast alcohol dehydrogenase (SIGMA A3263>300 u/mg.) 0.05 mg/ml. Kinetics of the reaction (OD at 550 nm, every 30 seconds for 40 minutes) was followed on a TECAN Infinite F500 microplate reader. NAD was quantified in duplicates for each sample by comparison to a range of standard NAD^+ concentration using linear regression curve equation method between NAD^+ standard concentrations and the slope of the reaction in OD units/sec. […] Cell extracts were quantified for protein concentration determined by Bradford assay.

[2] = test system: Lmna^H222P/H222P mice; assay: Survival of Lmna H222P/H222P mice on NR diet; format: in vivo, mouse
Protocol: Mice were bred in an accredited animal facility (accreditation number: C-75-13-08). All experiments on mice were approved by the Comité d'éthique en expérimentation animate Charles Darwin No 5. Mice Lmna^H222P/H222P were backcrossed 8 times to 129S2/SvPasOrlRj strain mice to obtain pure genetic background. Male mice used for the studies were maintained under a 12 h light/12 h dark cycle at constant temperature (23° C.) with free access to food and water. Nicotinamide riboside (NR) complementation: Animals at 17 weeks of age were fed for 9 weeks with either a chow diet (A04: Scientific Animal Food & Engineering) or a chow diet complemented with 0.25% of NR (kindly provided by ChromaDex, Inc. California) corresponding to a dose of 400 mg/kg/day for a mouse weighing 25 g eating 4 g of food per day. Nicotinamide (NAM) treatment: Animals at 17 weeks of age were injected intraperitoneally (IP) every two days (q.a.d.) for 9 weeks with either physiologic serum or physiologic serum added with NAM at 50 mg/ml corresponding to a dose of 500 mg/kg for a mouse weighing 25 g.
For survival analysis, Lmna^H222P/H222P mice were fed chow supplemented with 0.25% nicotinamide riboside when they were 17 weeks of age and continued until they suffered from significant distress or died. p≤0.001

NC(=O)c1ccc[n+]([C@@H]2O[C@H](CO)[C@@H](O)[C@H]2O)c1 [NR, nicotinamide riboside]
myocardial NAD ([1]; NR-enriched food (0.22%) from D5 to D50): protected against the drop in NAD
myocardial NAD+ levels ([1]; NR-supplemented diet for 2 weeks from D5 to D20): rescued
myocardial NAD+ levels ([1]; i.p. daily 1 μmole/g body weight from D8 to D15 after SRF inactivation): preserved
mice that died over the course of the treatment protocol ([2]; NR diet 400 mg/kg/day, 9 weeks from 17 weeks of age, 38% of chow-diet mice died): none
age at which mice started to die ([2]; pilot survival study, NR feeding from 17 weeks of age, chow-diet 30 weeks): 38 weeks
mean of survival ([2]; pilot survival study, NR feeding from 17 weeks of age, chow-diet 33 weeks): 39 weeks
